Experimental data reported in patent US7118899B2, “Detection of transmembrane potentials by optical methods” (The Regents of the University of California, priority 2001, dated 2006).

Legend:
astrocytoma cells = experiment: Pentamethine oxonol translocation, displacement currents in voltage-clamped astrocytoma cells; type: cell-based; settings: for translocation time constant (crosses the membrane): pentamethine oxonols, DiSBA-C6-(5) value at 20; for displacement current time constant: voltage steps of +20–120 mV
From the text: The membrane translocation rates for the pentamethines are 5–8 times faster than the trimethine analogues. […] The trimethine analogue translocates […] under identical conditions. The displacement currents of DiSBAC6(5) decay very rapidly and are difficult to separate from the cell capacitance. As a result of the large voltage-dependent signal from the Cou-PE/DiSBAC6(5) pair, it was possible to optically measure the speed of voltage response of DiSBAC6(5). The time constant for DiSBAC6(5) translocation was measured optically at 0.383±0.032 ms in response to a 100 mV depolarization step, using FRET from asymmetrically labeled Cou-PE. The enhanced translocation rates result from the greater charge delocalization and slightly more hydrophobicity of the pentamethine oxonols. The rapid voltage response of DiSBAC6(5) is the fastest known for a permeant, highly fluorescent molecule. The submillisecond response is fast enough to accurately register action potentials of single neurons.

L-M(TK^−) cells [1] = experiment: Voltage-sensitive FRET fluorescence changes in voltage clamped L-M(TK^−) cells; type: cell-based
Method: All cells were grown and handled like L-M(TK^−) except where noted. L-M(TK^−) cells were grown in Dulbecco's Modified Eagle Media (Gibco; Grand Island, N.Y.) with 10% fetal bovine serum (FBS) and 1% penicillin streptomycin (PS) (Gemini; Calabasas, Calif.). B104 cells were differentiated with 1 μM retinoic acid for 5 days prior to use. The cells were plated on glass coverslips at least one day before use. The adherent cells were washed and maintained in 2.5–3.0 mL of HBSS with 1 g/L glucose and 20 mM HEPES at pH 7.4. A freshly prepared 75 μM aqueous solution of the appropriate oxonol was made prior to an experiment from a DMSO stock solution. The cells were stained by mixing 100 μL of the oxonol solution with 750 μL of the bath and then adding the diluted solution to the cells. The dye was left for 30–40 minutes at a bath concentration of […]. 1.5 mM β-cyclodextrin in the bath solution was necessary for cell loading of DiSBA-C6-(3). The butyl and ethyl derivatives were water-soluble enough to load cells with out β-cyclodextrin complexation. DiSBA-C10-(3) was loaded in a pH 7.4 solution containing 290 mM sucrose and 10 mM HEPES, 364 mOsm, for 10 min at a bath concentration of […]. DiSBA-C10-(3) labeling was quenched by replacing the bath with HBSS solution. The cells were stained with 15 µg/mL of FL-WGA for 15 minutes. The B104 cells required a 125 µg/mL bath concentration to give satisfactory lectin staining. […] If the excess ethyl or butyl oxonol derivatives were left in the bath, slow currents and fluorescence changes due to redistribution of the dyes into the cell were observed during depolarizations greater than 1 s. […]
(§1) The fluorescently labeled cells were excited with light from a 75 W xenon lamp passed through 450–490 nm excitation interference filters. […] The long wavelength Texas Red fluorescence was passed through a 605 nm DF55 bandpass filter. Voltage dependent fluorescence changes in single cells were measured using a Nikon microscope attached to a Photoscan II photometer equipped with two R928 PMTs for dual emission recordings. […]

B104 neuroblastoma cells = experiment: Voltage-sensitive FRET in differentiated B104 neuroblastoma cells; type: cell-based; settings: oxonol as FRET donor to Cy5 labeled PE
Method: (§2) All cells were grown and handled like L-M(TK^−) except where noted. L-M(TK^−) cells were grown in Dulbecco's Modified Eagle Media (Gibco; Grand Island, N.Y.) with 10% fetal bovine serum (FBS) and 1% penicillin streptomycin (PS) (Gemini; Calabasas, Calif.). B104 cells were differentiated with 1 μM retinoic acid for 5 days prior to use. The cells were plated on glass coverslips at least one day before use. The adherent cells were washed and maintained in 2.5–3.0 mL of HBSS with 1 g/L glucose and 20 mM HEPES at pH 7.4. A freshly prepared 75 μM aqueous solution of the appropriate oxonol was made prior to an experiment from a DMSO stock solution. […] If the excess ethyl or butyl oxonol derivatives were left in the bath, slow currents and fluorescence changes due to redistribution of the dyes into the cell were observed during depolarizations greater than 1 s. […]
as §1

L-M(TK^−) cells [2] = experiment: Oxonol displacement currents (membrane translocation), whole-cell voltage clamp; type: cell-based; settings: for translocation time constant: voltage clamped mammalian cells
Method: All cells were grown and handled like L-M(TK^−) except where noted. L-M(TK^−) cells were grown in Dulbecco's Modified Eagle Media (Gibco; Grand Island, N.Y.) with 10% fetal bovine serum (FBS) and 1% penicillin streptomycin (PS) (Gemini; Calabasas, Calif.). B104 cells were differentiated with 1 μM retinoic acid for 5 days prior to use. The cells were plated on glass coverslips at least one day before use. The adherent cells were washed and maintained in 2.5–3.0 mL of HBSS with 1 g/L glucose and 20 mM HEPES at pH 7.4. A freshly prepared 75 μM aqueous solution of the appropriate oxonol was made prior to an experiment from a DMSO stock solution. The cells were stained by mixing 100 μL of the oxonol solution with 750 μL of the bath and then adding the diluted solution to the cells. The dye was left for 30–40 minutes at a bath concentration of […]. 1.5 mM β-cyclodextrin in the bath solution was necessary for cell loading of DiSBA-C6-(3). The butyl and ethyl derivatives were water-soluble enough to load cells with out β-cyclodextrin complexation. DiSBA-C10-(3) was loaded in a pH 7.4 solution containing 290 mM sucrose and 10 mM HEPES, 364 mOsm, for 10 min at a bath concentration of […]. DiSBA-C10-(3) labeling was quenched by replacing the bath with HBSS solution. The cells were stained with 15 µg/mL of FL-WGA for 15 minutes. The B104 cells required a 125 µg/mL bath concentration to give satisfactory lectin staining. The excess dyes were removed with repeated washes with HBSS. If the excess ethyl or butyl oxonol derivatives were left in the bath, slow currents and fluorescence changes due to redistribution of the dyes into the cell were observed during depolarizations greater than 1 s. The cardiac myocytes [Henderson, S. A., Spencer, M., Sen, A., Kumar, C., Siddiqui, M. A. Q., and Chien, K. R. 1989. Structure organization, and expression of the rat cardiac myosin light chain-2 gene. J. Biol. Chem. 264:18142–18146] were a gift of Professor Kenneth Chien, UCSD. The Jurkat lymphocyte suspensions were grown in RPMI media with 5% heat inactivated FBS and 1% PS. 15–20 mL aliquots of the cellular suspension were washed three times before and after dye staining by centrifugation at 100×g for 4 minutes followed by additions of fresh HBSS.
Patch clamp recording were made using an Axopatch 1-D amplifier equipped with a CV-4 headstage from Axon Instruments (Foster City, Calif.). The data were digitized and stored using the PCLAMP software. The pH 7.4 intracellular solution used contained 125 mM potassium gluconate, 1 mM CaCl2.2H2O, 2 mM MgCl2.6H2O, 11 mM EGTA, and 10 mM HEPES. For the B104 cells, 4 mM ATP and 0.5 mM GTP were added.
The translocation rates were studied in L-M(TK^−) cells using whole-cell voltage clamp recording. The L-M(TK^−) cells were chosen because they have very low background currents and are easy to patch clamp. These cells have a resting potential of −5 mV and no evident voltage activated currents.
12.5 ms long voltage steps at 15 mV increments were applied to the cell, from a holding potential of −70 mV. The larger, faster transients due to simple membrane capacitance transient could be minimized using the capacitance and series resistance compensation capabilities of the Axopatch amplifier, allowing the displacement currents to be clearly observed. The currents are due to redistribution of the membrane-bound oxonol in response to 8 depolarizations. The time constant for the displacement current is 2 ms for 120 mV depolarization. Equal amounts of charge move at the onset and conclusion of the voltage step, but in opposite directions, consistent with redistribution of stored ions from one energy minimum to the other across the plasma membrane. Furthermore, the induced capacitance dq/dV from the oxonol movement is calculated to be ˜5 pF for 100 mV depolarization. This value corresponds to roughly one third the membrane capacitance without the dye. […] The optimum density of sodium channels in an unmyelinated nerve. Philos. Trans. R. Soc. […]

1321N astrocytoma cells = experiment: Voltage-sensitive FRET fluorescence changes in voltage clamped astrocytoma cells; type: cell-based; settings: 100 mV depolarization step, FRET from asymmetrically labeled Cou-PE
Method: as §2, §1

Jurkat cell suspensions = experiment: Quenching of FL-WGA fluorescence by oxonol titration in cell suspensions; type: cell-based; settings: cells labeled with FL-WGA
Method: as §2
To transduce charge displacements into optical signals, the oxonol fluorescences at the intracellular and extracellular membrane binding sites is made different. Fluorescence asymmetry is created with the introduction of fluorescently labeled lectins bound to the extracellular membrane surface. […] The extinction coefficient and the fluorescence quantum yield of FL-WGA were measured to be 222,000 M^−1cm^−1 (˜3 fluorescein/protein) and 0.23, respectively. […]

[3] = system: targeted GFP expressing cells; experiment: Temporal response of the GFP/oxonol FRET change; type: cell-based; settings: oxonol acceptors; identical to displacement current time constants
From the text: The temporal response of the GFP/oxonol FRET change is dependent on the oxonol translocation rate and follows the previously observed trend with oxonol acceptors, faster responses with more hydrophobic acceptors. The measured time constants for the ethyl and butyl oxonol acceptors are ˜50 and ˜5 ms respectively in the targeted GFP expressing cells. The FRET response and the electrophysiologically measured displacement currents have identical time constants. The measured response times are 2–4 fold faster than previously reported and may be a property of the cells used or from a slight difference in temperature.

neuroblastoma = settings: cited from earlier work
[4] = voltage-clamped fibroblasts, 100 mV depolarization at 20 C

## CCCCN1C(=O)C(=CC=CC=Cc2c(O)n(CCCC)c(=S)n(CCCC)c2=O)C(=O)N(CCCC)C1=S [DiSBA-C4-(5)]
Astrocytoma cells
  translocation rate relative to the trimethine oxonol analogues: six times faster than the corresponding trimethine oxonol
  translocation time constant (crosses the membrane): < 3 ms
  displacement current time constant: ~2 ms

## CCCCCCN1C(=O)C(=CC=Cc2c(O)n(CCCCCC)c(=S)n(CCCCCC)c2=O)C(=O)N(CCCCCC)C1=S [DiSBA-C6-(3), (1,3-dihexyl-2-thiobarbiturate)trimethine oxonol]
L-M(TK^−) cells [1]; oxonol as FRET donor to TR-WGA
  response time (in words): same response time as FL-WGA/DiSBA-C6-(3)
  signal change (in words): only one half that for FL-WGA/DiSBA-C6-(3)
B104 neuroblastoma cells
  ratio changes: 5–15 %/100 mV
L-M(TK^−) cells [2]; 120 mV depolarization, holding potential −70 mV, 20 C
  time constant for the displacement current: 2 ms
L-M(TK^−) cells [2]; fit to Eq. 2, FIG. 5, Vh=−5 mV and β=0.42
  max, time constant for translocation at V=Vh: 2.9 ms
L-M(TK^−) cells [2]
  translocation time constant: < 3 ms
L-M(TK^−) cells [2]; [4]
  displacement current time constant: about 2 ms

## CCCCCCN1C(=O)C(=CC=CC=Cc2c(O)n(CCCCCC)c(=S)n(CCCCCC)c2=O)C(=O)N(CCCCCC)C1=S [DiSBA-C6-(5), Bis-(1,3-dihexyl-2-thiobarbiturate)-pentamethineoxonol]
1321N astrocytoma cells
  time constant for translocation, measured optically: 0.383 ± 0.032 ms
Astrocytoma cells
  response time: less than 1 ms
  translocation time constant (crosses the membrane): ~0.4 ms

## CCCCCCCCCCN1C(=O)C(=CC=Cc2c(O)n(CCCCCCCCCC)c(=S)n(CCCCCCCCCC)c2=O)C(=O)N(CCCCCCCCCC)C1=S [DiSBA-C10-(3)]
L-M(TK^−) cells [2]; compared with DiSBA-C6-(3), 20 C
  displacement currents (in words): approximately the same speed
L-M(TK^−) cells [2]
  translocation time constant: < 2 ms
L-M(TK^−) cells [2]; [4]
  displacement current time constant: about 2 ms

## CCCCN1C(=O)C(=CC=Cc2c(O)n(CCCC)c(=S)n(CCCC)c2=O)C(=O)N(CCCC)C1=S [DiSBA-C4-(3), Bis-(1,3-dibutyl-2-thiobarbiturate)-trimethineoxonol]
L-M(TK^−) cells [1]; from time constants at 20 C and 29 C
  activation energy of translocation: ~17 kcal/mol
Jurkat cell suspensions
  lectin fluorescence intensity quenched: up to 30%
[3]
  time constant of the FRET response: ~5 ms
Astrocytoma cells
  displacement current time constant: ~18 ms
L-M(TK^−) cells [2]; 20 C
  displacement current time constant: ~18 ms

## CCCCCN(CCCCC)c1ccc(/C=C/C=C/c2cc[n+](CCCCS(=O)(=O)[O-])cc2)cc1 [RH-421]
neuroblastoma
  fluorescence change: 21 % /100 mV
